The record followed here is PubChem BioAssay AID179 (DTP/NCI, 2004).

As a reminder, the EC50 is the concentration needed to bring the measured effect to its halfway point. As a reminder, the IC50 is the concentration that inhibits the measured activity by half.

This test relates to CEM cells HIV-1 protection, formazan growth assay. The test can be described thus: NCI AIDS Antiviral Assay. Conditions: for IC50: measured here: growth of uninfected CEM cells. In a few lines: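 Category rules: moderately active means at least 50% protection on retest, and confirmed active means 100% protection reproducibly. The underlying data came from a formazan growth assay in HIV-1-infected CEM cells.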

The source made the active and inactive calls.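 How the source made its calls: active means compounds giving half or more protection of infected cells from virus-caused growth loss, again on retest; inactive means the rest.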 Where a SMILES comes first, the peptide text is derived from it. [ ]: non-standard residue; d: D form. The star is where a group is joined. ξ: configuration not given here. X13 = COc1ccc(C(N*)c2ccc(OC)cc2)cc1; NMeF = CN[C@@H](Cc1ccccc1)C(=O)O; NMeD = CN[C@@H](CC(=O)O)C(=O)O; NMeV = CN[C@H](C(=O)O)C(C)C; ξNMeV = CNC(C(=O)O)C(C)C; Boc = CC(C)(C)OC(=O)*; ξNMeA = CNC(C)C(=O)O; ξV = CC(C)C(N)C(=O)O

In the case of `CNP(=O)(Oc1cc(Cl)c(Cl)cc1Cl)N1CCN(c2ccccc2)CC1` (stereo not drawn), the EC50 is greater than 58.9 µM and the IC50 was found to be 30.9 µM.

For the molecule `CC1CC/C(=C\c2ccc(N(C)C)cc2)C(=O)/C1=C/c1ccc(N(C)C)cc1` (stereo not drawn), the EC50 was greater than 100 µM and the half-inhibitory concentration (IC50) amounted to 60.3 µM.

For `CCOC(=O)Oc1ccc2[nH]c3c(C)cc(N)c(C)c3c2c1`, the EC50 was greater than 93.3 µM and the IC50 turned out to be 39.8 µM.

Regarding `COC1CC(C)(N)C(O)C(C)O1` (stereo not drawn), the EC50 was greater than 200 µM and the IC50 was greater than 200 µM.

With `OCCN(CCO)CCCNc1ccnc2cc(Cl)ccc12`, the EC50 was greater than 200 µM and the IC50 was determined as 18.2 µM.

With `CN(C)CCNC(=O)c1ccc(NC(=O)c2nc([N+](=O)[O-])cn2C)cc1`, the EC50 is greater than 200 µM and the IC50 is 182 µM.

For `N#Cc1ncn(Cc2ccccc2)c1N`, the EC50 was greater than 200 µM and the IC50 was greater than 200 µM.

On to `NCCCC[C@H](NC(=O)[C@H](CS)NC(=O)[C@@H](N)Cc1cnc[nH]1)C(=O)N[C@H](Cc1ccc(O)cc1)C(=O)N[C@@H](Cc1c[nH]c2ccccc12)C(=O)N[C@@H](Cc1c[nH]c2ccccc12)C(N)=O`, for which the EC50 is greater than 200 µM and the IC50 is greater than 200 µM.

In the case of `c1ccc(N=c2nc(Nc3ccccc3)ss2)cc1`, the EC50 is greater than 200 µM and the IC50 was 30.9 µM.

As for `CCC12CC(c3ccccc3)C(C(=O)N1)C(=O)N2` (stereo not drawn), the EC50 was greater than 200 µM and the IC50 is greater than 200 µM.

`C/C=C(\C)C(=O)c1c(OCC)cc(OCC)c2c(CCC)cc(=O)oc12`: the EC50 was greater than 126 µM and the IC50 was 1.91 µM.

For the molecule `C=C(C)C(=O)OC1C[C@H](COC(C)=O)C2CC=C(C)C2C2OC(=O)C(=C)[C@H]12` (stereo partly drawn), the EC50 was greater than 200 µM and the IC50 was 1.05 µM.

Regarding `O=C(Cn1ccnc1[N+](=O)[O-])c1ccccc1`, the EC50 was greater than 562 µM and the IC50 is greater than 562 µM.

Regarding `COc1cc2ccnc3c(=C(SC)SC)c(=O)c(c1OC)c23`, the outcome was inactive.

Take `COc1ccc2c(c1OCC(=O)O)C(=O)C(CCC(=O)O)CC2` (stereo not drawn): the outcome was inactive.

In the case of `CCOc1c2c(cc3c1C(=O)c1c(OC)cccc1C3=O)C=C(OC)CC2`, the EC50 is greater than 25.1 µM and the IC50 came out at 13.5 µM.

In the case of `COc1ccc(C(NC(=O)C[C@@H](C(=O)N(C)C(C)C(=O)O)N(C)C(=O)[C@@H]2CCCN2C(=O)[C@H](C(C)C)N(C)C(=O)C(C(C)C)N(C)C(=O)[C@H](Cc2ccccc2)N(C)C(=O)C(NC(=O)OC(C)(C)C)C(C)C)c2ccc(OC)cc2)cc1` (stereo partly drawn) (Boc-[ξV][NMeF][ξNMeV][NMeV]P[NMeD](X13)[ξNMeA]-OH), the EC50 is greater than 158 µM and the IC50 worked out at 23.4 µM.

Turning to `O=C(/C(C=NC(=S)c1ccncc1)=C(/O)C1=CC=CCC1)c1ccccc1`, the outcome was inactive.

For `O=C(Nc1ccccc1SC(/C=C/NNC1=NC(c2ccccc2)C(c2ccccc2)=NN1)c1ccccc1)c1ccc(Cl)cc1Cl` (stereo not drawn), the EC50 is greater than 10.7 µM and the half-maximal inhibitory concentration (IC50) is greater than 10.7 µM.

For `CCC1([N+](=O)[O-])COP(N)(=O)OC1` (stereo not drawn), the EC50 is greater than 427 µM and the IC50 came to 31.6 µM.

As for `CSc1nnc2sc(=S)[nH]n12`, the EC50 was greater than 200 µM and the IC50 is greater than 200 µM.

In the case of `COc1nc(NC2OC(COC(C)=O)C(OC(C)=O)C(OC(C)=O)C2OC(C)=O)c2c(n1)OCC2=O` (stereo not drawn), the outcome was inactive.

In the case of `Nc1cc2nc(=O)cc3n2c(n1)SC3`, the EC50 is greater than 67.6 µM and the IC50 is greater than 67.6 µM.

Take `O=C(O)c1cc(=O)[nH]c(=O)[nH]1`: the result was inactive.

Turning to `CCCCCC(/C=C/c1ncccc1OCCCCCC(=O)O)=N\NC1=NCCN1`, the EC50 was greater than 44.7 µM and the IC50 was greater than 44.7 µM.

Turning to `Cn1c(=O)n2n(c1=O)C(C)(C13CC4CC(CC(C4)C1)C3)C13CC4CC(CC1C4)CC23` (stereo not drawn), the EC50 was greater than 100 µM and the IC50 is greater than 100 µM.

For the molecule `Cc1cc2c(C(C)C)c(O)c(O)c(C=Nc3cccc(C(F)(F)F)c3)c2c(O)c1-c1c(C)cc2c(C(C)C)c(O)c(O)c(C=Nc3cccc(C(F)(F)F)c3)c2c1O`, the outcome was inactive.
